Laboratory results taken from US7951406B2, “Therapeutic compounds isolated from Calomeria amaranthoides” (Caroline Van Haaften, priority 2004, dated 2011).

Experiments:
[1] = system: ovarian cancer cell line JC; settings: 48 hours
human skin fibroblasts = assay: Cell viability by photomicrography, comparison with Cisplatinum and Docetaxol, fibroblasts; settings: 10 μg and 100 μg, compared with 1 μg; 48 hours

Row | Structure (SMILES) | cytotoxicity in JC cells, treatments compared ([1]; 10 μg dosage level) | resistance of JC cells [1] | cell viability in fibroblasts (human skin fibroblasts)
1 | CC(=O)O[C@@]12CO[C@@H]1C[C@H](O)[C@@]1(C)C(=O)[C@H](O)C3=C(C)[C@@H](OC(=O)[C@H](O)[C@@H](NC(=O)OC(C)(C)C)c4ccccc4)C[C@@](O)([C@@H](OC(=O)c4ccccc4)[C@H]21)C3(C)C [Docetaxol] | less cytotoxic than either the Calomeria extract or Cisplatinum | more resistant | greater reduction in cell viability
2 | N.N.[Cl][Pt][Cl] [Cisplatinum] |  |  | greater reduction in cell viability
